Where two headings read alike, the source gives them in different places.
How the values were obtained:
[1] = tested on: H1N1pdm09 (A/Osaka/129/2009) PA/I38T; type: cell-based, influenza A virus
rgH1N1.WT [2] = conditions: mouse, in vivo
rgH1N1.PA/I38T [3] = tested on: rgH1N1.PA/I38T; set-up: species or system BALB/c mice; conditions: mouse, in vivo
rgH1N1.NA/H275Y [4] = tested on: rgH1N1.NA/H275Y; set-up: species or system BALB/c mice; conditions: mouse, in vivo
H1N1pdm09.PA/I38T = tested on: H1N1pdm09.PA/I38T; set-up: species or system BALB/c mice; conditions: mouse, in vivo
rgH3N2.WT = conditions: hamster, in vivo
rgH3N2.PA/I38T = tested on: rgH3N2.PA/I38T; set-up: species or system Syrian hamsters; conditions: hamster, in vivo
rgH1N1.WT [5] = conditions: mouse, in vivo; remark: listed apart in the source
rgH1N1.PA/I38T [6] = tested on: rgH1N1.PA/I38T; set-up: species or system BALB/c mice; conditions: mouse, in vivo; remark: listed apart in the source
rgH1N1.NA/H275Y [7] = tested on: rgH1N1.NA/H275Y; set-up: species or system BALB/c mice; conditions: mouse, in vivo; remark: listed apart in the source
[8] = tested on: H1N1 (rgA/WSN/33) NA/H275Y; conditions: cited from earlier work
[9] = tested on: H1N1 (rgA/WSN/33) PA/I38T; conditions: cited from earlier work
[10] = tested on: H3N2 (rgA/Victoria/3/75) PA/I38T; conditions: cited from earlier work
[11] = tested on: H1N1 (rgA/WSN/33) NA/H275Y; conditions: cited from earlier work; remark: listed apart in the source
[12] = tested on: H1N1 (rgA/WSN/33) PA/I38T; conditions: cited from earlier work; remark: listed apart in the source
[13] = tested on: H3N2 (rgA/Victoria/3/75) PA/I38T; conditions: cited from earlier work; remark: listed apart in the source
rgH1N1.PA/I38T [14] = tested on: rgH1N1.PA/I38T; set-up: species or system BALB/c mice; conditions: mouse, in vivo; remark: listed apart in the source

In the case of `O=C1c2c(O)c(=O)ccn2N([C@@H]2c3ccccc3SCc3c2ccc(F)c3F)[C@@H]2COCCN12` [baloxavir acid], the EC50 [1] is reported as 15.7 nM, the “FC (fold change of EC50 relative to WT)” value [1] is reported as 25.74 fold and the “Antiviral activity vs oseltamivir phosphate (5 mg/kg, twice daily)” value (rgH1N1.WT [2]) is reported as “significantly greater than oseltamivir phosphate”. For the same compound, the Lung virus titer (rgH1N1.WT [2]) was < 1.5 log10 TCID50/mL, the “Lung virus titers vs vehicle” value (rgH1N1.WT [2]) was “significantly lower than vehicle-treated groups at all doses” and the “Antiviral effect vs oseltamivir phosphate (5 mg/kg, twice daily)” value (rgH1N1.PA/I38T [3]) was “statistically similar”. For the same compound, the “Lung virus titers vs vehicle” value (rgH1N1.PA/I38T [3]) was “significantly lower than vehicle”, the “Reduction of virus titers compared with vehicle” value (rgH1N1.PA/I38T [3]) was 1.88 log10 TCID50/mL and the “Viral rebound (increase in virus titers after dosing)” value (rgH1N1.PA/I38T [3]) was “did not observe any increase in virus titers”. For the same compound, the “Lung virus titers vs vehicle” value (rgH1N1.PA/I38T [3]; sc, 10 mg/kg) was “significant decrease in virus titers”, the “Antiviral activity vs oseltamivir phosphate” value (rgH1N1.NA/H275Y [4]) was “significantly higher antiviral activity compared with oseltamivir phosphate” and the Lung virus titer (rgH1N1.NA/H275Y [4]) was < 1.5 log10 TCID50/mL. The “Lung virus titers vs vehicle, time course” value (H1N1pdm09.PA/I38T) was “significantly lower with baloxavir than the vehicle-treated mice”, the “Reduction in lung virus titers vs oseltamivir phosphate (5 mg/kg, twice daily)” value (H1N1pdm09.PA/I38T) was “statistically similar” and the “Viral rebound (increase in virus titers after dosing)” value (H1N1pdm09.PA/I38T) was “did not observe any increase in virus titers”. The Lung virus titer (H1N1pdm09.PA/I38T; sc, 30 mg/kg) was 1.87 log10TCID50/mL, the “Reduction in virus titers vs vehicle and oseltamivir phosphate” value (rgH3N2.WT) was “significantly higher reduction in virus titers” and the “Reduction in virus titers vs vehicle and oseltamivir phosphate” value (rgH3N2.PA/I38T) was “statistically significant reduction in virus titers”. For the same compound, the “Inhibitory effect on loss of body weight vs vehicle” value (rgH1N1.WT [5]) was “significant inhibitory effect on loss of body weight”, the “Inhibitory effect on loss of body weight vs vehicle” value (rgH1N1.PA/I38T [6]) was “significant inhibitory effect on loss of body weight” and the “Inhibitory effect on loss of body weight vs oseltamivir phosphate” value (rgH1N1.NA/H275Y [7]) was “significantly greater with baloxavir acid than with oseltamivir phosphate”. For the same compound, the “Inhibitory effect on loss of body weight vs vehicle” value (rgH1N1.NA/H275Y [7]) was “significant inhibitory effect on loss of body weight”, the EC50 [8] was 0.32 nM and the “FC (fold change of EC50 relative to WT)” value [8] was 0.77 fold. For the same compound, the EC50 [9] was 11.4 nM, the “FC (fold change of EC50 relative to WT)” value [9] was 27.24 fold and the EC50 [10] was 63.8 nM. For the same compound, the “FC (fold change of EC50 relative to WT)” value [10] was 56.59 fold.
In the case of `CCC(CC)O[C@@H]1C=C(C(=O)O)C[C@H](N)[C@H]1NC(C)=O` [oseltamivir acid], the “FC (fold change of IC50 relative to WT)” value [11] is given as 226.12 fold, the IC50 [11] is given as 182 nM and the “FC (fold change of IC50 relative to WT)” value [12] is given as 1.00 fold. For the same compound, the IC50 [12] was 0.8 nM, the “FC (fold change of IC50 relative to WT)” value [13] was 1.21 fold and the IC50 [13] was 0.16 nM.
For `CCOC(=O)C1=C[C@@H](OC(CC)CC)[C@H](NC(C)=O)[C@@H](N)C1` [oseltamivir phosphate], the “Degree of virus titer reduction” value (rgH1N1.WT [2]) was 1.15 log10TCID50/mL, the “Lung virus titers vs vehicle” value (rgH1N1.WT [2]) was “statistically lower compared with vehicle” and the “Lung virus titers vs vehicle” value (rgH1N1.PA/I38T [3]) was “statistically lower compared with vehicle”. The “Degree of virus titer reduction” value (rgH1N1.NA/H275Y [4]) was 0.38 log10TCID50/mL, the “Lung virus titers vs vehicle” value (rgH1N1.NA/H275Y [4]) was “statistically lower compared with vehicle” and the “Lung virus titers vs vehicle” value (H1N1pdm09.PA/I38T) was “statistically lower compared with vehicle”. It also gave a Mean virus titer (rgH1N1.PA/I38T [14]) of 3.17 log10 TCID50/mL.

Source: publication PMC10222987 (Viruses, 2023)
